Measurements: patent US10294202B2, “Pyrrolidinones as herbicides” (FMC Corporation, priority 2013, dated 2019)

Columns and labels:
johnsongrass = test: Test C pre-/postemergence herbicide test; format: in vivo, Sorghum halepense; conditions: Preemergence; for Plant response rating (scale of 0 to 100), Johnsongrass: 250 g ai/ha
How it was run: (§1)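 Test compounds, formulated in a surfactant-containing non-phytotoxic solvent blend, are applied to seeded loam/sand soil (preemergence) and to young plants at the 1- to 4-leaf stage in peat-based medium (postemergence). Plants stay 13 to 15 days under greenhouse conditions, then are scored visually relative to controls, 0 = no effect, 100 = complete control.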

sedge, umbrella = test: Test B flooded paddy test; format: in vivo, Cyperus difformis; conditions: 500 g ai/ha, Flood; scale of 0 to 100 where 0 is no effect and 100 is complete control
How it was run: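 Treatment was made at the 2-leaf stage by dosing the standing floodwater, kept 3 cm above soil level for the whole test. Greenhouse exposure lasted 13 to 15 days. Response is a visual percent rating relative to controls, where a dash indicates no test result.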

corn [1] = test: Test A pre-/postemergence herbicide test; format: in vivo, Zea mays; conditions: Postemergence
How it was run: (§2)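 Planted in loam–sand blend; treated the same day preemergence by directed soil spray, while separately grown plants at one- to two-leaf stage got postemergence spray. Compared visually with untreated controls after approximately 10 days; 100 means complete control.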

giant foxtail = test: Test A pre-/postemergence herbicide test; format: in vivo, Setaria faberii
How it was run: as §2

wheat = test: Test A pre-/postemergence herbicide test; format: in vivo, Triticum aestivum; conditions: Postemergence
How it was run: as §2

ragweed = test: Test C pre-/postemergence herbicide test; format: in vivo, Ambrosia elatior; conditions: Preemergence
How it was run: as §1

galium = test: Test C pre-/postemergence herbicide test; format: in vivo, Galium aparine; conditions: Preemergence; for Plant response rating (scale of 0 to 100), Galium: 250 g ai/ha
How it was run: as §1

foxtail, giant = test: Test C pre-/postemergence herbicide test; format: in vivo, Setaria faberii; conditions: Preemergence; for Plant response rating (scale of 0 to 100), Foxtail, Giant: 250 g ai/ha
How it was run: as §1

blackgrass = test: Test C pre-/postemergence herbicide test; format: in vivo, Alopecurus myosuroides; conditions: Preemergence; for Plant response rating (scale of 0 to 100), Blackgrass: 250 g ai/ha
How it was run: as §1

corn [2] = test: Test C pre-/postemergence herbicide test; format: in vivo, Zea mays; conditions: Preemergence; for Plant response rating (scale of 0 to 100), Corn: 250 g ai/ha
How it was run: as §1

oilseed rape = test: Test C pre-/postemergence herbicide test; format: in vivo, Brassica napus; conditions: Preemergence; for Plant response rating (scale of 0 to 100), Oilseed Rape: 250 g ai/ha
How it was run: as §1

[3] = 31 g ai/ha, scale 0 to 100, 0 is no effect and 100 is complete control
[4] = 62 g ai/ha, scale 0 to 100 (0 no effect, 100 complete control)
[5] = 125 g ai/ha, scale 0 to 100 (0 no effect, 100 complete control)
[6] = 500 g ai/ha, 0 to 100 scale (0 no effect, 100 complete control)
[7] = Postemergence, 500 g ai/ha, 0 to 100 scale (0 no effect, 100 complete control)
[8] = Preemergence, 125 g ai/ha, 0 to 100 scale where 0 is no effect and 100 is complete control
[9] = 125 g ai/ha, visual rating on 0 to 100 scale (0 no effect, 100 complete control), approx. 10 days

Compound | Johnsongrass plant response rating (johnsongrass; [4]) | Plant response rating (scale of 0 to 100), Johnsongrass (johnsongrass) | Plant response rating, Sedge, Umbrella (sedge, umbrella) | Plant response rating, Corn (corn [1]; [6]) | Plant response rating, Foxtail, Giant (giant foxtail; [7]) | Plant response rating, Foxtail, Giant (giant foxtail; [8]) | Plant response rating, Wheat (wheat; [9]) | Ragweed plant response rating (ragweed; [4]) | Galium plant response rating (galium; [4]) | Plant response rating (scale of 0 to 100), Galium (galium) | Foxtail, Giant plant response rating (foxtail, giant; [4]) | Plant response rating (scale of 0 to 100), Foxtail, Giant (foxtail, giant) | Blackgrass plant response rating (blackgrass; [4]) | Plant response rating (scale of 0 to 100), Blackgrass (blackgrass) | Corn plant response rating (corn [2]; [4]) | Plant response rating (scale of 0 to 100), Corn (corn [2]) | Oilseed Rape plant response rating (oilseed rape; [4]) | Plant response rating (scale of 0 to 100), Oilseed Rape (oilseed rape) | further results
O=C1NCC(c2cc(F)cc(F)c2)C1C(=O)Nc1ccccc1Cl (racemic) [Compound 280] | 0 | 10 | 0 | 0 | 80 | 90 | 0 | 0 | 0 | 85 | 80 | 95 | 0 | 0 | 0 | 5 | 30 | 0 | Johnsongrass plant response rating (johnsongrass; [3]): 0; Plant response rating, Johnsongrass (johnsongrass; [5]): 10; Plant response rating, Corn (corn [1]; 125 g ai/ha, 0 to 100 scale, 0 is no effect, 100 is complete control): 0; Plant response rating, Foxtail, Giant (giant foxtail; Postemergence, 125 g ai/ha, 0 to 100 scale, 0 is no effect, 100 is complete control): 70; Plant response rating, Foxtail, Giant (giant foxtail; preemergence, 500 g ai/ha, 0 to 100 scale, 0 is no effect and 100 is complete control): 90; Plant response rating, Wheat (wheat; [6]): 0; Ragweed plant response rating (ragweed; [3]): 0; Plant response rating, Ragweed (ragweed; [5]): 0; Plant response rating (scale of 0 to 100), Ragweed (ragweed; 250 g ai/ha): 60; Galium plant response rating (galium; [3]): 0; Plant response rating, Galium (galium; [5]): 0; Foxtail, Giant plant response rating (foxtail, giant; [3]): 70; Plant response rating, Foxtail, Giant (foxtail, giant; [5]): 90; Blackgrass plant response rating (blackgrass; [3]): 0; Plant response rating, Blackgrass (blackgrass; [5]): 0; Corn plant response rating (corn [2]; [3]): 0; Plant response rating, Corn (corn [2]; [5]): 0; Oilseed Rape plant response rating (oilseed rape; [3]): 0; Plant response rating, Oilseed Rape (oilseed rape; [5]): 0
O=C1NCC(c2ccc(OC(F)F)cc2)C1C(=O)Nc1cccc(F)c1F (racemic) [Compound 350] | 0 | 30 | 0 | 40 | 90 | 90 | 20 | 0 | 85 | 90 | 90 | 90 | 0 | 55 | 0 | 40 | 70 | 85 | Plant response rating, Johnsongrass (johnsongrass; 125 g ai/ha, scale 0 to 100): 0; Plant response rating, Johnsongrass (johnsongrass; 31 g ai/ha, scale 0 to 100): 0; Plant response rating, Corn (corn [1]; [9]): 20; Plant response rating, Foxtail, Giant (giant foxtail; Postemergence, 125 g ai/ha, visual rating on 0 to 100 scale (0 no effect, 100 complete control), approx. 10 days): 80; Foxtail, Giant plant response rating (giant foxtail; Preemergence, 500 g ai/ha, visual rating on 0 to 100 scale (0 no effect, 100 complete control)): 90; Plant response rating, Ragweed (ragweed; 125 g ai/ha, scale 0 to 100): 5; Plant response rating, Ragweed (ragweed; 31 g ai/ha, scale 0 to 100): 0; Plant response rating, Galium (galium; 125 g ai/ha, scale 0 to 100): 90; Plant response rating, Galium (galium; 31 g ai/ha, scale 0 to 100): 30; Plant response rating, Foxtail, Giant (foxtail, giant; 125 g ai/ha, scale 0 to 100): 90; Plant response rating, Foxtail, Giant (foxtail, giant; 31 g ai/ha, scale 0 to 100): 85; Plant response rating, Blackgrass (blackgrass; 125 g ai/ha, scale 0 to 100): 50; Plant response rating, Blackgrass (blackgrass; 31 g ai/ha, scale 0 to 100): 0; Plant response rating, Corn (corn [2]; 125 g ai/ha, scale 0 to 100): 5; Plant response rating, Corn (corn [2]; 31 g ai/ha, scale 0 to 100): 0; Plant response rating, Oilseed Rape (oilseed rape; 125 g ai/ha, scale 0 to 100): 80; Plant response rating, Oilseed Rape (oilseed rape; 31 g ai/ha, scale 0 to 100): 5
